Consider 70 compounds from the OPERA property sets (Mansouri et al. 2018).

Settings in the first data set: not given
`O=C(Cl)C(Cl)(Cl)Cl` had a boiling point of 118 °C, a log10 Henry constant (atm·m³/mol) of -3.29 and a log10 vapour pressure (mmHg) of 1.33.
The compound `CCCC(C)C1(CC)C(=O)N=C(O)NC1=O` (stereo not drawn) returned a melting point of 130 °C.
For `CC(=O)O[C@@]12CO[C@@H]1C[C@H](O)[C@@]1(C)C(=O)[C@H](O)C3=C(C)[C@@H](OC(=O)[C@H](O)[C@@H](NC(=O)OC(C)(C)C)c4ccccc4)C[C@@](O)([C@@H](OC(=O)c4ccccc4)[C@H]21)C3(C)C`, the melting point came out at 232 °C.
For the compound `CNC(=O)O/N=C/C(C)(C)S(C)(=O)=O`, the log10 Koc (L/kg) was determined as 0.42, the log10 vapour pressure (mmHg) was -4.05 and the melting point came out at 141 °C.
`Clc1cccc2nccc(Cl)c12` gave a melting point of 118 °C.
Compound `Cc1ccc(C)n1C` yielded a boiling point of 171 °C.
For the compound `CC=Cc1ccc(O)c(OC)c1`, the boiling point was 266 °C, the log10 vapour pressure (mmHg) was -1.92 and the melting point came out at 11.8 °C.
For `CN(C)c1ccc(N(C)C)cc1`, the boiling point was 260 °C and the melting point turned out to be 51 °C.
The compound `COc1c(C[C@@H](O)C(C)C)c(=O)n(C)c2c(OC)cccc12` had a melting point of 86.5 °C.
With `C#CCOc1ccc(N)cc1C(=O)NCCCC`, the melting point is 84 °C.
`O=C(Cc1ccccc1)c1ccccc1`: the boiling point was 320 °C, the log10 vapour pressure (mmHg) was -3.74 and the melting point was found to be 60 °C.
With `CCOC(=O)NN`, the melting point was determined as 46 °C.
`CCCS(=O)(=O)CCC`: the boiling point amounted to 270 °C, the log10 vapour pressure (mmHg) was -2.39 and the melting point worked out at 29.5 °C.
Regarding `CCC(Br)CBr` (stereo not drawn), the boiling point is 166 °C, the log10 vapour pressure (mmHg) was determined as 0.491 and the melting point was -65.4 °C.
In turn, `CCNC` yielded a boiling point of 36.5 °C.
Compound `Sc1ccc(Br)cc1` gave a boiling point of 230 °C and a melting point of 73 °C.
`CC(O)C(C)(C)CO` (stereo not drawn) came in with a boiling point of 208 °C.
`C[C@H](NC(=O)COC(=O)c1ccccc1)C(N)=O` registered a melting point of 202 °C.
Turning to `O=Cc1ccc(Br)o1`, the boiling point was determined as 201 °C.
Compound `O=C(NC(=O)c1c(F)cccc1F)Nc1cc(Cl)c(OC(F)(F)C(F)F)c(Cl)c1` had a melting point of 204 °C.
For the compound `c1ccc2sc(SN(C3CCCCC3)C3CCCCC3)nc2c1`, the melting point came out at 99.8 °C and the ready biodegradability result is given as “not readily biodegradable”.
Compound `Fc1c(F)c(F)c(S)c(F)c1F` came in with a boiling point of 143 °C and a melting point of -24 °C.
On the same counts, the results for `c1ccc(-n2ccnc2)cc1` are 276 °C and 13 °C.
In turn, `CCCC(CC)CC` had a boiling point of 119 °C, a log10 biodegradation half-life (days) of 0.602 and a log10 vapour pressure (mmHg) of 1.3.
For `CC(=O)N(C)C(=O)COC(=O)c1ccccc1`, the melting point came out at 102 °C.
The compound `COC(Cc1ccccc1)OC` came in with a boiling point of 220 °C.
In turn, `O=C1c2cccc([N+](=O)[O-])c2C(=O)c2cccc([N+](=O)[O-])c21` displayed a melting point of 385 °C.
Consider `SCCCCS`, for which the boiling point came out at 196 °C and the melting point is -53.9 °C.
Consider `CCCCCC(C)N` (stereo not drawn), for which the boiling point was 142 °C.
For `N#CCc1cccc2ccccc12`, the melting point amounted to 32.5 °C.
Regarding `Cc1ccc2c(C)cccc2c1`, the boiling point came to 264 °C, the log10 vapour pressure (mmHg) was -1.84 and the melting point was -16.9 °C.
`CC(=O)OCC1CCCO1` (stereo not drawn) registered a boiling point of 193 °C.
In turn, `Fc1ccc(Br)cc1Br` showed a melting point of 69 °C.
On the same count and under the same terms, then `CN(C)C(=O)CCCOC(=O)c1ccccc1`, with 40.5 °C.
As to `COc1ccc(C)c([N+](=O)[O-])c1`, the boiling point was determined as 266 °C and the melting point was 17 °C.
Turning to `C/C=C\CC(C)(C)C`, the boiling point stood at 107 °C.
On to `COC(=O)N(C(=O)N1COC2(C(=O)OC)Cc3cc(Cl)ccc3C2=N1)c1ccc(OC(F)(F)F)cc1` (stereo not drawn), for which the melting point was 140 °C.
`C1CC2CC1C1OC21` (stereo not drawn) showed a melting point of 123 °C.
Take `CC(C)OC(OC(C)C)OC(C)C`: the boiling point came to 167 °C.
Compound `COC(=O)c1cc(Cl)ccc1O` yielded a melting point of 50 °C.
On the same count and under the same terms, then `O=C(O)c1ccsc1`, with 138 °C.
`COc1ccc2c(OC(C)=O)c(OC)c(OC)c(OC(C)=O)c2c1` showed a melting point of 77.5 °C.
In the case of `Cc1ccc(-c2ccccc2)cc1`, the boiling point was 268 °C, the log10 biodegradation half-life (days) was 1.58 and the melting point was 49.5 °C.
Compound `ClCc1cc(Cl)c(Cl)cc1Cl` came in with a boiling point of 273 °C.
Take `COc1ccc2nc(N)sc2c1`: the melting point came to 166 °C.
On to `C[C@]12CCC(=O)C=C1CC[C@@H]1[C@@H]2CC[C@@]2(C)[C@H]1CC[C@]2(O)C(=O)CO`, for which the melting point stood at 215 °C.
`CCOc1ccc(C=O)cc1OC` yielded a melting point of 64.5 °C.
`NCCCCCCNCCCCCCN` displayed a melting point of 33 °C.
`O=C1CCC(N2C(=O)c3ccccc3C2=O)C(=O)N1` (stereo not drawn): the melting point stood at 270 °C.
As for `CC(C)(C)c1ccc(OC(=O)c2ccccc2O)cc1`, the melting point is 62 °C.
Regarding `Cc1cccc(OCC(O)CNC(C)C)c1` (stereo not drawn), the melting point came out at 76 °C.
In turn, `c1ccc([Si](c2ccccc2)(c2ccccc2)c2ccccc2)cc1` showed a melting point of 236 °C.
In the case of `CCOC(=O)C(O)c1ccccc1` (stereo not drawn), the melting point came out at 35 °C.
On to `N#CC(O)c1ccccc1` (stereo not drawn), for which the melting point was -10 °C.
The compound `Cc1cc(Cl)nc2ccccc12` displayed a boiling point of 296 °C and a melting point of 59 °C.
Regarding `CC/C=C\CC1=C(C)CCC1=O`, the boiling point was 258 °C.
On to `CC[N+](CC)(CCNC(=O)C(=O)NCC[N+](CC)(CC)Cc1ccccc1Cl)Cc1ccccc1Cl.[Cl-].[Cl-]`, for which the melting point amounted to 198 °C.
As for `COc1cccc2cccnc12`, the boiling point was determined as 283 °C and the melting point is 49.5 °C.
`O=C([O-])C(F)(F)C(F)F.[Na+]` yielded a log10 vapour pressure (mmHg) of -3.52.
In turn, `CC(C)N=C=O` showed a boiling point of 74.5 °C.
Turning to `CCC(Cl)(Cl)Cl`, the boiling point was 108 °C and the log10 vapour pressure (mmHg) came to 1.5.
Regarding `CC(C)(C)NC=O`, the boiling point amounted to 202 °C, the log10 vapour pressure (mmHg) is -0.569 and the melting point worked out at 16 °C.
Regarding `C=C[Si](C)(C)O[Si](C)(C)C=C`, the boiling point amounted to 39 °C and the melting point is -99.7 °C.
The compound `C=C(C)CCCC` gave a boiling point of 92 °C, a log10 vapour pressure (mmHg) of 1.78 and a melting point of -103 °C.
On to `Clc1cccc(Cl)c1N=C1NCCN1`, for which the melting point came to 130 °C.
For `c1ccc(Nc2ccc(-c3ccc(Nc4ccccc4)cc3)cc2)cc1`, the melting point stood at 247 °C.
Turning to `Cc1ccc([N+](=O)[O-])cc1O`, the ready biodegradability entry is listed as “not readily biodegradable”.
In turn, `CCOC(=O)c1ccc2c(c1)OCO2` yielded a boiling point of 286 °C and a melting point of 18.5 °C.
In turn, `N#Cc1c(Cl)c(Cl)c(Cl)c(C#N)c1Cl` came in with a boiling point of 350 °C, a log10 Henry constant (atm·m³/mol) of -5.7, a log10 Koc (L/kg) of 3.26 and a log10 vapour pressure (mmHg) of -6.24. Further, the melting point came out at 250 °C and the ready biodegradability entry is listed as “readily biodegradable”.

Staying with this data set, now noted: fish.
Compound `N#Cc1nn(-c2c(Cl)cc(C(F)(F)F)cc2Cl)c(N)c1S(=O)(=O)C(F)(F)F` had a log10 biotransformation half-life (days) of 1.05.
`Cc1ccc([N+](=O)[O-])cc1O` returned a log10 BCF of 0.85 and a log10 biotransformation half-life (days) of -1.24.
In turn, `N#Cc1c(Cl)c(Cl)c(Cl)c(C#N)c1Cl` came in with a log10 BCF of 1.8 and a log10 biotransformation half-life (days) of 0.27.

Usually boiling point stands for the temperature at which the vapour pressure of the liquid equals the pressure above it. A word on the melting point: it is the temperature of the solid-liquid transition.
